Reference: patent publication US20250304600A1, “PHARMACEUTICAL COMPOUNDS AND COMPOSITIONS AS c-KIT KINASE INHIBITORS” (Enanta Pharmaceuticals, Inc., priority 2023, published 2025)

Key:
[1] = tested on: M-07e cells which endogenously express human c-KIT; assay: M-07e cellular assay: SCF-mediated cell proliferation (CellTiter Glo); assay type: cell-based; conditions: 72 h, SCF-mediated proliferation of M-07e cells
Experimental: M-07e cells (Creative Bioarray, CSC-C0249) which endogenously express human c-KIT were used to evaluate the effect of compounds on stem cell factor (SCF)-mediated cell proliferation. M-07e cells were cultured in growth media (RPMI+10% FBS+1% penicillin/streptomycin+10 ng/mL GM-CSF) at 5E5-1.5E6 cells/mL, replenishing media every 3-4 days. 1.5E4 cells were seeded per well in 384 well tissue culture treated plates in […] assay media (RPMI+10% FBS+1% penicillin/streptomycin) without growth factor stimulation and incubated at 37° C. in a CO2 humidity-controlled incubator. Twenty-four hours later, three-fold serially diluted test compounds in media containing SCF (at the previously determined EC90) were added to the plated M-07e cells and incubated for an additional 72 hours. Cell viability was determined by adding 25 μL CellTiter Glo (Promega) to the cells and the luminescence was measured using a Perkin Elmer Envision plate reader. The EC50 was determined using GraphPad Prism. Percent cell growth was determined after normalizing the curve to the mean RLU high control (no compound control wells) at 100% and the mean RLU low control (no SCF control wells) at 0%.

[2] = target: T1, Recombinant human c-KIT kinase (Homo sapiens, UniProt P10721); assay: c-KIT kinase chemiluminescence assay (ADP-Glo); assay type: biochemical; conditions: ATP 50 μM
T1 construct: purchased Promega V4498
Experimental: The c-KIT Kinase Enzyme System (V4498) and ADP-Glo™ Kinase Assay kit (V6930) were purchased from Promega (Madison, WI). DMSO (D2650) was purchased from Sigma-Aldrich (Burlington, MA).
c-KIT Kinase Chemiluminescence Assay:
Kinase Reaction: The kinase assay was based on the recommended protocol by c-KIT Kinase Enzyme System from Promega. Recombinant human c-KIT kinase in 3 μL of assay buffer (40 mM Tris pH 7.5, 20 mM MgCl2, 0.1 mg/mL BSA and 50 μM DTT) was added to the test or high control wells and 3 μL of assay buffer was added to the low control wells. The microplate was centrifuged at 800 rotations per minute (rpm) for 60 s and incubated at room temperature (RT) for 30 min. Next, 2 μL of buffered ATP and polyEY substrate solution was added to all wells. The microplate was centrifuged at 800 rpm for 60 s and incubated at RT for 2 h.
ADP detection with ADP-Glo™ Kinase Assay: After the kinase reaction incubation, 5 μL of ADP-Glo™ reagent was added to all wells. The microplate was centrifuged at 800 rpm for 60 s and incubated at RT for 40 min. Ten microliter (10 μL) of Kinase Detection Reagent (Luciferin-Luciferase system) was then added to all wells. The microplate was centrifuged at 800 rpm for 60 s and incubated at RT for 60 min. Kinase activity was measured as an increase in luminescence at RT in an Envision plate reader equipped with 560 nm filters and operating in endpoint mode.
Data Analysis: Endpoint chemiluminescence from high and low control wells were used to calculate normalized c-KIT activity at various concentrations of test compounds. The normalized activities were fitted to inhibitor-versus-normalized response fit in GraphPad Prism 7 to determine half-maximal inhibitory concentration (IC50) and hill coefficient values (H).
Where I is the inhibitor concentration and H is the Hill coefficient.

T1 sequence (P10721 544-976 limits assumed): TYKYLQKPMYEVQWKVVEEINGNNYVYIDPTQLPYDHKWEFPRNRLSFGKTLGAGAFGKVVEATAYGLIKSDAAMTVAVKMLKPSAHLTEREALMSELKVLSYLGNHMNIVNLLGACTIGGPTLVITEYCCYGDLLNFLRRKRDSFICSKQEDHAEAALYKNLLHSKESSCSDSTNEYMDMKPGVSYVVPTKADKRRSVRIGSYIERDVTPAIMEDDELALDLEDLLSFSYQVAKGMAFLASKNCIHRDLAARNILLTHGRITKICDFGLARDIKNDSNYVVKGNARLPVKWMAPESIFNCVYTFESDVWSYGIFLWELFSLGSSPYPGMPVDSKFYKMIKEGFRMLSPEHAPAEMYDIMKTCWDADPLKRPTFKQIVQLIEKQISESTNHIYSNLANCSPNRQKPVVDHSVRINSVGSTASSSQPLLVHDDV

Row | Structure (SMILES) | EC50 [1] [nM] | IC50 [2] [nM]
1 | Cc1ncc(-c2nnn(CCC(F)(F)F)n2)cc1NC(=O)c1cnn2ccc(N3CC4(C3)CC(O)(C(F)F)C4)cc12 [Example 384] | < 100 | 100 to 1000
2 | Cc1ncc(-c2nnn[nH]2)cc1NC(=O)c1cnn2ccc(N3CC4(C3)CC(O)(C(F)F)C4)cc12 [Example 394] | > 1000 | > 1000
3 | Cc1cc(F)c(-c2noc(C3CC(OC(F)F)C3)n2)cc1NC(=O)c1cnn2ccc(N3CC4(COC4)C3)cc12 (centres unmarked) [Example 281-58] | 100 to 1000 | 100 to 1000
4 | Cc1ncc(-c2noc(C3CC(OC(F)F)C3)n2)cc1NC(=O)c1cnn2ccc(N3CC4(C3)CC(O)(C(F)F)C4)cc12 (centres unmarked) [Example 281-44] | < 100 | < 100
5 | Cc1ncc(-c2noc(C3CC(OC(F)F)C3)n2)cc1NC(=O)c1cnn2ccc(N3CC4(C3)CC(O)(C(F)(F)F)C4)cc12 (centres unmarked) [Example 281-40] | < 100 | 100 to 1000
6 | O=C(Nc1cn(-c2ccc(C3CC3)cc2)nc1C(F)F)c1cnn2ccc(N3CC4(COC4)C3)cc12 [compound 373] | > 1000 | 
7 | Cc1ncc(-c2ncc(OC(F)(F)F)cn2)cc1NC(=O)c1cnn2ccc(-c3c(C)nc(N)nc3C)cc12 [Example 364] |  | > 1000
8 | Cc1ccc(-c2noc([C@H]3C[C@@H]3F)n2)cc1NC(=O)c1cnc(-c2ccc3nn(CC(C)(C)O)c(C)c3c2)o1 [Example 21a] | < 100 | < 100
9 | Cc1ncc(-c2noc(C3C[C@@H]3C(F)F)n2)cc1NC(=O)c1ccc(NC(=O)OC(C)(C)C)nc1 (some centres unmarked) [Example 399] | > 1000 | > 1000
10 | Cc1ncc(-c2ncc(OC(F)(F)F)cn2)cc1NC(=O)c1cnn2ccc(N3CC4(C3)CC(O)(C(F)F)C4)cc12 [Example 313] | < 100 | 100 to 1000
11 | O=C(Nc1cc(-c2ncc(C3CC3)cn2)ccc1C(F)F)c1cnn2ccc(Br)cc12 [Example 392] | > 1000 | > 1000
12 | Cc1ccc(-c2noc([C@H]3C[C@@H]3F)n2)cc1NC(=O)c1cnc(-c2cnc(N)nc2)o1 [Example 308-64] |  | > 1000
13 | Cc1ccc(-c2noc([C@H]3C[C@@H]3F)n2)cc1NC(=O)c1cnc(N2CC(C(=O)O)C2)s1 [Example 98-4] | > 1000 | 
14 | Cc1ncc(-c2nnn(C3CC3)n2)cc1NC(=O)c1cnn2ccc(N3CC4(C3)CC(O)(C(F)F)C4)cc12 [Example 403] | < 100 | 100 to 1000
15 | Cc1nn(-c2ccc(C3CC3)cc2)cc1NC(=O)c1cnn2ccc(N3CC4(COC4)C3)cc12 [Example 372] |  | > 1000
16 | Cc1ncc(-c2nnn(C3CCC(F)(F)CC3)n2)cc1NC(=O)c1cnn2ccc(N3CC4(C3)CC(O)(C(F)F)C4)cc12 [Example 385] | < 100 | < 100
17 | O=C(Nc1cc(-c2ncc(C3CC3)cn2)ccc1C(F)F)c1cnn2ccc(N3CC4(C3)CC(O)(C(F)F)C4)cc12 [Example 393] | < 100 | 100 to 1000
18 | Cc1ncc(-c2ccn3ncc(C(=O)Nc4cc(-c5noc([C@H]6C[C@@H]6F)n5)ccc4C)c3c2)c(C)n1 [Example 168] |  | < 100
19 | COCCn1nnc(-c2cnc(C)c(NC(=O)c3cnn4ccc(N5CC6(C5)CC(O)(C(F)F)C6)cc34)c2)n1 [Example 386] | 100 to 1000 | 100 to 1000
20 | Cc1ccc(-c2noc([C@H]3C[C@@H]3F)n2)cc1NC(=O)c1cnc2n1Cc1ccccc1-2 [Example 99] |  | < 100
21 | Cc1ncc(-c2nnn(C[C@H](O)C(F)(F)F)n2)cc1NC(=O)c1cnn2ccc(N3CC4(C3)CC(O)(C(F)F)C4)cc12 [Example 380] | 100 to 1000 | 100 to 1000

Row | Structure (SMILES) | EC50 [1] [nM] | IC50 [2] [nM]
22 | CCn1nnc(-c2cnc(C)c(NC(=O)c3cnn4ccc(N5CC6(C5)CC(O)(C(F)F)C6)cc34)c2)n1 [Example 382] | < 100 | 100 to 1000
23 | Cc1ncc(-c2noc([C@H]3C[C@@H]3F)n2)cc1NC(=O)c1cnc(-c2ccc3nn(CC(C)(C)O)c(C)c3c2)o1 [Example 23a] | 100 to 1000 | 100 to 1000
24 | Cc1ncc(-c2noc(C3C[C@@H]3F)n2)cc1NC(=O)c1cnn2ccc(-c3cn(C[C@H](O)C(C)(C)O)nc3C3CC3)cc12 (some centres unmarked) [Example 406] | < 100 | < 100
25 | Cc1ccc(-c2noc([C@H]3C[C@@H]3C(F)F)n2)cc1NC(=O)c1cnn2ccc(-c3c(C)nc(N)nc3C)cc12 [Example 390] | 100 to 1000 | 100 to 1000
26 | Cc1ncc(-c2nnc(C3C[C@@H]3F)s2)cc1NC(=O)c1cnn2ccc(N3CC4(C3)CC(O)(C(F)F)C4)cc12 (some centres unmarked) [Example 407] | < 100 | 100 to 1000
27 | Cc1nc(N)nc(C)c1-c1ccn2ncc(C(=O)Nc3cc(-c4noc([C@H]5C[C@@H](OC(F)(F)F)C5)n4)sc3C)c2c1 [Example 368] |  | > 1000
28 | Cc1ncc(-c2nnn(C[C@@H](O)C(F)(F)F)n2)cc1NC(=O)c1cnn2ccc(N3CC4(C3)CC(O)(C(F)F)C4)cc12 [Example 381] | 100 to 1000 | 100 to 1000
29 | Cc1ncc(-c2nnn(CC(C)(C)C#N)n2)cc1NC(=O)c1cnn2ccc(N3CC4(C3)CC(O)(C(F)F)C4)cc12 [Example 383] | 100 to 1000 | 100 to 1000
30 | Cc1nc(N)nc(C)c1-c1ccn2ncc(C(=O)Nc3cc(-c4noc(C5CN(C(=O)OC(C)(C)C)C5)n4)sc3C)c2c1 [Example 369] |  | > 1000
31 | Cc1nc(N)nc(C)c1-c1ccn2ncc(C(=O)Nc3cc(-c4noc([C@H]5C[C@@H]5F)n4)sc3C)c2c1 [Example 370] |  | > 1000
32 | Cc1ncc(-c2nnn(C[C@H](O)C(F)F)n2)cc1NC(=O)c1cnn2ccc(N3CC4(C3)CC(O)(C(F)F)C4)cc12 [Example 378] | 100 to 1000 | 100 to 1000
33 | COCCn1nc(C)c(-c2ccc3c(C(=O)Nc4cc(-c5noc([C@H]6C[C@@H]6F)n5)ccc4C)cnn3c2)c1C [Example 147] | < 100 | < 100
34 | Cc1ccc(-c2noc(C3C[C@@H]3C(F)F)n2)cc1NC(=O)c1ccc(NC(=O)OC(C)(C)C)nc1 (some centres unmarked) [Example 398] | > 1000 | > 1000
35 | C#Cc1ccc2c(C(=O)Nc3cc(-c4noc([C@H]5C[C@@H]5F)n4)ccc3C)cnn2c1 [Example 106] | < 100 | 
36 | Cc1ncc(-c2noc(N3CC(O)(C(F)(F)F)C3)n2)cc1NC(=O)c1cnn2ccc(N3CC4(C3)CC(O)(C(F)F)C4)cc12 [Example 389] | > 1000 | > 1000
37 | Cc1ccc(-c2noc([C@H]3C[C@@H]3F)n2)cc1NC(=O)c1cnc2cccnn12 [Example 16] |  | > 1000
38 | Cc1ncc(-c2nnn(CCO)n2)cc1NC(=O)c1cnn2ccc(N3CC4(C3)CC(O)(C(F)F)C4)cc12 [Example 387] | > 1000 | > 1000
39 | Cc1nc(N)nc(C)c1-c1ccn2ncc(C(=O)Nc3cc(-c4noc(C5CN(C(=O)[C@H]6C[C@@H]6F)C5)n4)sc3C)c2c1 [Example 371] |  | > 1000
40 | Cc1ccc(-c2noc([C@H]3C[C@@H]3F)n2)cc1NC(=O)c1cnn2cc(-c3cn(C(F)F)nn3)ccc12 [Example 107] | < 100 | 
41 | Cc1ccc(-c2noc([C@H]3C[C@@H](OC(F)F)C3)n2)cc1NC(=O)c1cnn2ccc(N3CC4(COC4)C3)cc12 [Example 242] | < 100 | 
42 | Cc1ccc(-c2nc([C@H]3C[C@@H]3F)cs2)cc1NC(=O)c1cnn2ccc(N3CC4(COC4)C3)cc12 [Example 309] |  | < 100
